Biological target: human mGlu4 receptor (Homo sapiens (Human), UniProt Q14833)
Experiment: Ca2+ mobilization in vitro assay on recombinant human mGlu4 expressed in HEK293 cells (PAM)
Type: cell-based
Details: for Emax: HEK293, maximal response in % of maximal stimulatory effect of saturating L-AP4, read-out: Eff. (%); for EC50: HEK293 cells, human mGlu4, in presence of EC20 of L-AP4, read-out: EC50 (nM) mGlu4PAM
Description: FIG. 1: Illustrates the experimental outline for mGlu4 PAM Ca^2+ mobilization screening assay and the determination of EC50 and % Emax values. […] A depression of the signal observed after addition of the EC20 concentration of L-AP4 was indicative of an inhibitory activity of the test compound.
Determination of EC50 Values Using a Ca2+ Mobilization In Vitro Assay on Recombinant Human mGlu4 Expressed in HEK293 Cells:
A monoclonal HEK-293 cell line stably transfected with a cDNA encoding for the human mGlu4 receptor was generated; for the work with mGlu4 Positive Allosteric Modulators (PAMs), a cell line with low receptor expression levels and low constitutive receptor activity was selected to allow the differentiation of agonistic versus PAM activity. Cells were cultured according to standard protocols (Freshney, 2000) in Dulbecco's Modified Eagle Medium with high glucose supplemented with 1 mM glutamine, 10% (vol/vol) heat-inactivated bovine calf serum, Penicillin/Streptomycin, 50 μg/ml hygromycin and 15 μg/ml blasticidin (all cell culture reagents and antibiotics from Invitrogen, Basel, Switzerland).
About 24 hrs before an experiment, 5×10^4 cells/well were seeded in poly-D-lysine coated, black/clear-bottomed 96-well plates. The cells were loaded with 2.5 μM Fluo-4AM in loading buffer (1×HBSS, 20 mM HEPES) for 1 hr at 37° C. and washed five times with loading buffer. The cells were transferred into a Functional Drug Screening System 7000 (Hamamatsu, Paris, France), and 11 half logarithmic serial dilutions of test compound at 37° C. were added and the cells were incubated for 10-30 min. with on-line recording of fluorescence. Following this pre-incubation step, the agonist (2S)-2-amino-4-phosphonobutanoic acid (L-AP4) was added to the cells at a concentration corresponding to EC20 with on-line recording of fluorescence; in order to account for day-to-day variations in the responsiveness of cells, the EC20 of L-AP4 was determined immediately ahead of each experiment by recording of a full dose-response curve of L-AP4.
Responses were measured as peak increase in fluorescence minus basal (i.e. fluorescence without addition of L-AP4), normalized to the maximal stimulatory effect obtained with saturating concentrations of L-AP4. Graphs were plotted with the % maximal stimulatory using XLfit, a curve fitting program that iteratively plots the data using Levenburg Marquardt algorithm. The single site competition analysis equation used was y=A+((B−A)/(1+((x/C)D))), where y is the % maximal stimulatory effect, A is the minimum y, B is the maximum y, C is the EC50, x is the log 10 of the concentration of the competing compound and D is the slope of the curve (the Hill Coefficient). From these curves the EC50 (drug concentration at which 50% of the maximal receptor activation was achieved), the Hill coefficient as well as the maximal response in % of the maximal stimulatory effect obtained with saturating concentrations of L-AP4 were calculated (see FIG. 1).

human mGlu4 receptor, sequence (Q14833 33-912): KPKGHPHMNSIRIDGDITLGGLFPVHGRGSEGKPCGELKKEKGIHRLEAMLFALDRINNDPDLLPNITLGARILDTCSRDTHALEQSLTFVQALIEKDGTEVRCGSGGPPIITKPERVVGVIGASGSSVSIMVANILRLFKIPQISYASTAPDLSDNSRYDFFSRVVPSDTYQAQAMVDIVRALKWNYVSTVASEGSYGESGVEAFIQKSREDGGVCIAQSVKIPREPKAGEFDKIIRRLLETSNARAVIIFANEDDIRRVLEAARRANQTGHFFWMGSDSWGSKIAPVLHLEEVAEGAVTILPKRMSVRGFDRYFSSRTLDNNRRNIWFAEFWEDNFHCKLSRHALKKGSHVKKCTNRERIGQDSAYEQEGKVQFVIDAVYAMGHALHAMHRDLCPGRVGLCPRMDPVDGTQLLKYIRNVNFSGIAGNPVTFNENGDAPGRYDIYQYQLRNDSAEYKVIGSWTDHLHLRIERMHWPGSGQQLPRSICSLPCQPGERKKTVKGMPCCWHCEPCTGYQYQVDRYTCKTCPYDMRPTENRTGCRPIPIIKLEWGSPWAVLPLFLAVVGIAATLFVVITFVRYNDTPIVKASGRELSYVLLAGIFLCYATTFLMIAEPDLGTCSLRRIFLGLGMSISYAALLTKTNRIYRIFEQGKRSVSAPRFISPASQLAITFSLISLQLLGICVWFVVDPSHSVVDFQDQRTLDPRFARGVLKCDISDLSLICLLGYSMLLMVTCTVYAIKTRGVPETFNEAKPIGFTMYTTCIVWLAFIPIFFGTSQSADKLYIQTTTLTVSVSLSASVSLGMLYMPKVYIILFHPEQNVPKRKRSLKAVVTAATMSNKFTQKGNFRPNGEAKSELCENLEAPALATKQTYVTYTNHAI

| SMILES | Emax [%] | EC50 [nM] |
| --- | --- | --- |
| O=C1C2CC(=O)N(c3c(F)cc(C#Cc4ccccc4)cc3F)C(=O)N2CCN1c1cccnc1 (racemic) [Example 1, (9aRS)-7-[2,6-difluoro-4-(2-phenylethynyl)phenyl]-2-(3-pyridyl)-3,4,9,9a-tetrahydropyrazino[1,2-c]pyrimidine-1,6,8-trione] | 105 | 224 |
| O=C1C2CC(=O)N(c3c(F)cc(C#Cc4ccccc4)cc3F)C(=O)N2CCN1c1ccncn1 (racemic) [Example 2, (9aRS)-7-[2,6-difluoro-4-(2-phenylethynyl)phenyl]-2-pyrimidin-4-yl-3,4,9,9a-tetrahydropyrazino[1,2-c]pyrimidine-1,6,8-trione] | 88 | 85 |
| O=C1C2CC(=O)N(c3c(F)cc(C#Cc4ccccc4)cc3F)C(=O)N2CCN1c1ccccn1 (racemic) [Example 3, (9aRS)-7-[2,6-difluoro-4-(2-phenylethynyl)phenyl]-2-(2-pyridyl)-3,4,9,9a-tetrahydropyrazino[1,2-c]pyrimidine-1,6,8-trione] | 116 | 235 |
| CC12CC(=O)N(c3c(F)cc(C#Cc4ccccc4)cc3F)C(=O)N1CCN(c1ccccn1)C2=O (racemic) [Example 4, (9aRS)-7-[2,6-difluoro-4-(2-phenylethynyl)phenyl]-9a-methyl-2-(2-pyridyl)-4,9-dihydro-3H-pyrazino[1,2-c]pyrimidine-1,6,8-trione] | 110 | 119 |
| CC12CC(=O)N(c3c(F)cc(C#Cc4ccccc4)cc3F)C(=O)N1CCN(c1cccnc1)C2=O (racemic) [Example 6, (9aRS)-7-[2,6-difluoro-4-(2-phenylethynyl)phenyl]-9a-methyl-2-(3-pyridyl)-4,9-dihydro-3H-pyrazino[1,2-c]pyrimidine-1,6,8-trione] | 122 | 118 |
| CC12CC(=O)N(c3c(F)cc(C#Cc4ccccc4)cc3F)C(=O)N1CCN(c1ccncc1)C2=O (racemic) [Example 8, (9aRS)-7-[2,6-difluoro-4-(2-phenylethynyl)phenyl]-9a-methyl-2-(4-pyridyl)-4,9-dihydro-3H-pyrazino[1,2-c]pyrimidine-1,6,8-trione] | 118 | 129 |
| Cc1cccc(N2CCN3C(=O)N(c4c(F)cc(C#Cc5ccccc5)cc4F)C(=O)CC3(C)C2=O)n1 (racemic) [Example 10, (9aRS)-7-[2,6-difluoro-4-(2-phenylethynyl)phenyl]-9a-methyl-2-(6-methyl-2-pyridyl)-4,9-dihydro-3H-pyrazino[1,2-c]pyrimidine-1,6,8-trione] | 127 | 163 |
| Cc1cc(N2CCN3C(=O)N(c4c(F)cc(C#Cc5ccccc5)cc4F)C(=O)CC3(C)C2=O)ccn1 (racemic) [Example 11, (9aRS)-7-[2,6-difluoro-4-(2-phenylethynyl)phenyl]-9a-methyl-2-(2-methyl-4-pyridyl)-4,9-dihydro-3H-pyrazino[1,2-c]pyrimidine-1,6,8-trione] | 119 | 214 |
| Cc1ccnc(N2CCN3C(=O)N(c4c(F)cc(C#Cc5ccccc5)cc4F)C(=O)CC3(C)C2=O)c1 (racemic) [Example 12, (9aRS)-7-(2,6-difluoro-4-(phenylethynyl)phenyl)-9a-methyl-2-(4-methylpyridin-2-yl)tetrahydro-1H-pyrazino[1,2-c]pyrimidine-1,6,8(2H,7H)-trione] | 126 | 131 |
| Cc1cncc(N2CCN3C(=O)N(c4c(F)cc(C#Cc5ccccc5)cc4F)C(=O)CC3(C)C2=O)c1 (racemic) [Example 14, (9aRS)-7-[2,6-difluoro-4-(2-phenylethynyl)phenyl]-9a-methyl-2-(5-methyl-3-pyridyl)-4,9-dihydro-3H-pyrazino[1,2-c]pyrimidine-1,6,8-trione] | 129 | 105 |
| Cc1ccc(N2CCN3C(=O)N(c4c(F)cc(C#Cc5ccccc5)cc4F)C(=O)CC3(C)C2=O)cn1 (racemic) [Example 16, (9aRS)-7-[2,6-difluoro-4-(2-phenylethynyl)phenyl]-9a-methyl-2-(6-methyl-3-pyridyl)-4,9-dihydro-3H-pyrazino[1,2-c]pyrimidine-1,6,8-trione] | 125 | 298 |
| CC12CC(=O)N(c3c(F)cc(C#Cc4ccccc4)cc3F)C(=O)N1CCN(c1ccnc(Cl)c1)C2=O (racemic) [Example 18, (9aRS)-2-(2-chloro-4-pyridyl)-7-[2,6-difluoro-4-(2-phenylethynyl)phenyl]-9a-methyl-4,9-dihydro-3H-pyrazino[1,2-c]pyrimidine-1,6,8-trione] | 131 | 114 |
| CC12CC(=O)N(c3c(F)cc(C#Cc4ccccc4)cc3F)C(=O)N1CCN(c1ccc(Cl)nc1)C2=O (racemic) [Example 20, (9aRS)-2-(6-chloro-3-pyridyl)-7-[2,6-difluoro-4-(2-phenylethynyl)phenyl]-9a-methyl-4,9-dihydro-3H-pyrazino[1,2-c]pyrimidine-1,6,8-trione] | 101 | 116 |
| COc1ccc(N2CCN3C(=O)N(c4c(F)cc(C#Cc5ccccc5)cc4F)C(=O)CC3(C)C2=O)cn1 (racemic) [Example 22, (9aRS)-7-[2,6-difluoro-4-(2-phenylethynyl)phenyl]-2-(6-methoxy-3-pyridyl)-9a-methyl-4,9-dihydro-3H-pyrazino[1,2-c]pyrimidine-1,6,8-trione] | 106 | 105 |
| CC12CC(=O)N(c3c(F)cc(C#Cc4ccccc4)cc3F)C(=O)N1CCN(c1ncccn1)C2=O (racemic) [Example 25, (9aRS)-7-[2,6-difluoro-4-(2-phenylethynyl)phenyl]-9a-methyl-2-pyrimidin-2-yl-4,9-dihydro-3H-pyrazino[1,2-c]pyrimidine-1,6,8-trione] | 122 | 135 |
| CC12CC(=O)N(c3c(F)cc(C#Cc4ccccc4)cc3F)C(=O)N1CCN(c1ccncn1)C2=O (racemic) [Example 26, (9aRS)-7-[2,6-difluoro-4-(2-phenylethynyl)phenyl]-9a-methyl-2-pyrimidin-4-yl-4,9-dihydro-3H-pyrazino[1,2-c]pyrimidine-1,6,8-trione] | 101 | 36 |
| CC12CC(=O)N(c3c(F)cc(C#Cc4ccccc4)cc3F)C(=O)N1CCN(c1cncnc1)C2=O (racemic) [Example 28, (9aRS)-7-[2,6-difluoro-4-(2-phenylethynyl)phenyl]-9a-methyl-2-pyrimidin-5-yl-4,9-dihydro-3H-pyrazino[1,2-c]pyrimidine-1,6,8-trione] | 120 | 145 |
| Cc1cc(N2CCN3C(=O)N(c4c(F)cc(C#Cc5ccccc5)cc4F)C(=O)CC3(C)C2=O)nc(C)n1 (racemic) [Example 29, (9aRS)-7-[2,6-difluoro-4-(2-phenylethynyl)phenyl]-2-(2,6-dimethylpyrimidin-4-yl)-9a-methyl-4,9-dihydro-3H-pyrazino[1,2-c]pyrimidine-1,6,8-trione] | 112 | 177 |
| Cc1nccc(N2CCN3C(=O)N(c4c(F)cc(C#Cc5ccccc5)cc4F)C(=O)CC3(C)C2=O)n1 (racemic) [Example 30, (9aRS)-7-[2,6-difluoro-4-(2-phenylethynyl)phenyl]-9a-methyl-2-(2-methylpyrimidin-4-yl)-4,9-dihydro-3H-pyrazino[1,2-c]pyrimidine-1,6,8-trione] | 101 | 113 |
